Reference: PMC8456950, “Structure‐Guided Design of G‐Protein‐Coupled Receptor Polypharmacology” (Angewandte Chemie (International Ed. in English), 2021)

Experiments:
H1R = molecular target: T1, H1R (Homo sapiens, UniProt P35367); assay: H1R competition binding ([3H]pyrilamine); conditions: for H1R % displacement at 10 µM: 10 µM compound, n=2
T1 construct: expressed in transfected cells; host or cells: CHO-H1R cell line (membranes)
Description: H1R competition binding experiments were carried out in polypropylene 96-well plates. Each well contained 50 µg of membranes from a CHO-H1R cell line (protein concentration=3860 µg/ml), 4 nM [3H]pyrilamine (20. 1 Ci/mmol, 1 mCi/ml, Perkin Elmer NET594250UC ), and the compound studied. Non-specific binding was determined in the presence of 10 µM triprolidine (T6764, Sigma Aldrich). The reaction mixture (250 µl/well) was incubated at 27 °C for 60 min, after which 200 µL was transferred to GF/B 96 -well plates (Millipore, Madrid, Spain) pretreated with 0. 1% Tween 20 and assay b uffer (Na+ / K+ phosphate buffer pH=7. 4).
The samples were then filtered and washed fou r times with 250 µl wash buffer (Na+/K+ phosphate buffer, pH=7.4), after which 30 µL Universol (MP Biomedicals, Spain) was added […]
and measurements were performed in a microplate beta scintillation counter (Microbeta Trilux, PerkinElmer, Madrid, Spain). Two independent experiments were carried out to calculate Ki values (n=2).
Data were adjusted to non-linear fitting by using Prism V2.1 (GraphPad Inc, Chicago, USA) and Ki values were calculated by using the Cheng-Prusoff equation25. […]
KB=I C50/(1+([NECA]/EC50 NECA)). […]

D4R = molecular target: T2, D4R (Homo sapiens, UniProt P21917, DEL265-296); assay: D4R competition binding ([3H]-spiperone); conditions: for inhibition at 10 µM: 2 h, 10 µM compound, n=2, read-out: D4R % displacement at 10 µM; for Ki: mean±SEM of two experiments in duplicate, read-out: D4R binding affinity Ki
T2 sequence (P21917 with tags, fused parts or gaps DEL265-296): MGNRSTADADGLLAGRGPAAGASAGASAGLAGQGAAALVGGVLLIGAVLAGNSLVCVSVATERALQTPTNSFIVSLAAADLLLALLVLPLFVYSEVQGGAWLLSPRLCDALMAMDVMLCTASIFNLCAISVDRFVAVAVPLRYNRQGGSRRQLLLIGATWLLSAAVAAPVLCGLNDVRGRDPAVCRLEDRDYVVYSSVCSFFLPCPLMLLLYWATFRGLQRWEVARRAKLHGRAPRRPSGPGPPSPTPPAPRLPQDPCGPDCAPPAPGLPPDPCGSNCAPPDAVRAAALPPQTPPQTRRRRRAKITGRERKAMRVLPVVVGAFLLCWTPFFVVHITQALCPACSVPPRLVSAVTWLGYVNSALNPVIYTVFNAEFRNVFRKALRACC
Description: D4R competition binding experiments were carried out in polypropylene 96 -well plate s. Each well contained 35 µg of membranes from a CHO-D4R cell line (Perkin Elmer, RBHD42M400U A, protein concentration=14000 µg/ml), 1 nM [3H]-spiperone (68 Ci/mmol, 1 mCi/ml, Perkin Elmer NET1187001MC), and the compound studied. Non-specific binding was determined in the presence of 25 µM haloperidol (Sigma H1512). The reaction mixture (250 µl/well) was incubated at 27 °C for 120 min, after which 200 µL was transferred to GF/C 96-well plates (Millipore, Madrid, Spain) pretreated with 0.5% PEI and treated with binding buffer (50 mM Tris-HCl, 1 mM EDTA, 5 mM MgCl2, 5 mM KCl, 120 mM NaCl, pH=7.4). The samples were filtered and washed f our times with 250 µl wash buffer (50 mM Tris-HCl, 0.9% NaCl, pH=7.4) before measuring in a microplate beta scintillation counter (Microbeta Trilux, PerkinElmer, Madrid, Spain). Two independent experiments were carried out to calculate Ki values (n=2). […]

Human A2AAR = Human A2AAR (Homo sapiens, UniProt P29274); assay: A2AAR competition binding ([3H]-ZM241385 displacement); set-up: expressed in transfected cells; host or cells: HeLa-A2AAR cell line (membranes); conditions: radioligand displacement, mean±SEM of three experiments in duplicate; read-out: A2AAR binding affinity Ki
Sequence of Human A2AAR (P29274 whole entry): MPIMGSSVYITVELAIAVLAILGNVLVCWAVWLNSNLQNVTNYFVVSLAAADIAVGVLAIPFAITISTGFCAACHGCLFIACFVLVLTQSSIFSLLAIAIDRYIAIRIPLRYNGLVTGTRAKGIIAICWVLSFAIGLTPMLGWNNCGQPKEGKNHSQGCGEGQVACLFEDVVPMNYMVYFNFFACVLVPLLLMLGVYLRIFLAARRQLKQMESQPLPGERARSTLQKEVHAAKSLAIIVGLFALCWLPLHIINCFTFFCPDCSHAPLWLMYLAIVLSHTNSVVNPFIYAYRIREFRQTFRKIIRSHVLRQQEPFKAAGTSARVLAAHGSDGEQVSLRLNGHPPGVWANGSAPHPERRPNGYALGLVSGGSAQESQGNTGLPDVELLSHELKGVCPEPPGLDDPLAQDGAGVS
Description: Binding assays. Human A2AAR competition binding experiments were carried out in multiscreen GF/C 96-well plates (Millipore, Madrid, Spain) pretreated with binding buffer (50 mM Tris-HCl, 1 mM EDTA, 10 mM MgCl2, 2 U/ml adenosine deaminase, pH=7.4).
Each well contained 5 µg of membranes from a He l a-A2AAR cell line (protein concentration […]
compound studied. Non-specific binding was determined in the presence of 50 µM NE C A (Sigma E2387). The reaction mixture (200 µl/well) was incubated at 25 °C for 30 min, after which it was filtered and washed four times with 250 µl wash buffer (50 mM Tris -HCl, 1 mM EDTA, 10 mM MgCl 2, pH=7. 4) before measuring in a microplate beta scintillation counter (Microbeta Trilux, PerkinElmer, Madrid, Spain). Three independent experiments were carried out to calculate K i values (n=3). […]

Human A1AR = molecular target: T3, Human A1AR (Homo sapiens, UniProt P30542); assay: A1AR competition binding ([3H]-DPCPX); conditions: for A1AR % displacement at 10 µM: 10 µM compound, n=2
T3 construct: expressed in transfected cells; host or cells: CHO-A1AR cell line (membranes)
T3 sequence (P30542 1-326): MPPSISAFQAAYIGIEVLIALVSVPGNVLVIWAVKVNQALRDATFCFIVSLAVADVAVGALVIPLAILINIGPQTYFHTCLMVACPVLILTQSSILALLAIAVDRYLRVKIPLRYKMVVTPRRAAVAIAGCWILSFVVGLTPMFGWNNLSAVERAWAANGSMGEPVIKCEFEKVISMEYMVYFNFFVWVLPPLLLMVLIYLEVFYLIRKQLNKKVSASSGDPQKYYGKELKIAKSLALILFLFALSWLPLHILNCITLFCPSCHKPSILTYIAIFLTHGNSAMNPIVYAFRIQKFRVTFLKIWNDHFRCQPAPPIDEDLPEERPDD
Description: Human A1AR competition binding experiments were carried out in multiscreen GF/C 96 -well plates (Millipore, Madrid, Spain) pretreated with assay buffer ( 20 mM Hepes, 100 mM NaCl, 10 mM MgCl2, 2 U/ml adeno sine deamina se, pH=7.4). Each well contained 5 µg of membranes from a CHO-A1AR cell line, 1 nM [3H]-DPCPX (137 Ci/mmol, 1 mCi/Ml, Perkin Elmer NET974001MC), and the compound studied. Non-specific binding was determined in the presence of R-PIA 10 µM (Sigma P4532). The reaction mixture (200 µl/well) was incubated at 25°C for 60 min. The samples were then filtered and washed four times with 250 µl wash buffer (20 mM Hepes, 100 mM NaCl, 10 mM MgCl2, pH=7.4) before measuring in a microplate beta scintillati on counter (Microbeta Trilux, PerkinElmer, Madrid, Spain). Two independent experiments were carried out to calculate K i values (n=2). […]

T1 sequence (P35367 whole entry, species assumed): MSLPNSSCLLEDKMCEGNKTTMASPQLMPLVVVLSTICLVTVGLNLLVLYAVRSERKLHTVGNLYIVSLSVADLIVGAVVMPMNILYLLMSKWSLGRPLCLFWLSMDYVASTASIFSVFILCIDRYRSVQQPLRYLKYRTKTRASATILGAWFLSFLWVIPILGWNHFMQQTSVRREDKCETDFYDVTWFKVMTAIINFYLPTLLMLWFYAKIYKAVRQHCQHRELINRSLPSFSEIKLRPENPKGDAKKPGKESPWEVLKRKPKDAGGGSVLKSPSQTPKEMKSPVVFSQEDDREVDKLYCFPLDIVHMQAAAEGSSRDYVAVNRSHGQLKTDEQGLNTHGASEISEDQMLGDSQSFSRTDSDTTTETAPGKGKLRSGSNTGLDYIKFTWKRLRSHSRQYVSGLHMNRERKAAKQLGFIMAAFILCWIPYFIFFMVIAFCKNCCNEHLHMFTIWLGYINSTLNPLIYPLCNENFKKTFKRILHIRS

Row | H1R % displacement at 10 µM (H1R) [%] | inhibition at 10 µM (D4R) [%] | Ki (Human A2AAR) [nM] | Ki (H1R; mean±SEM of two experiments in duplicate, read-out: H1R binding affinity Ki) [nM] | Ki (D4R) [nM] | A1AR % displacement at 10 µM (Human A1AR) [%] | Ki (Human A1AR; mean±SEM of two experiments in duplicate, read-out: A1AR binding affinity Ki) [nM] | SMILES
1 | 12 ± 3 | 19 ± 1 | 340 ± 50 |  |  |  |  | CCN(CCCCC(=O)Nc1nc2c(Br)cccc2s1)C1Cc2ccccc2C1 [Compound 22]
2 | 40 ± 3 | 19 ± 4 | 160 ± 30 | > 10000 | > 10000 | 35 ± 1 | > 10000 | CCCN(CCCCC(=O)Nc1nc2c(OC)ccc(OC)c2s1)C1Cc2ccccc2C1 [Compound 30]
3 | 40 ± 1 | 27 ± 4 | 390 ± 50 |  |  | 37 ± 4 |  | CCCN(CCCCC(=O)Nc1nc2c(Br)cccc2s1)C1Cc2ccccc2C1 [Compound 27]
4 |  |  | 610 ± 90 |  | 700 ± 80 | 22 ± 1 |  | CCCN(CCCCC(=O)Nc1nc2c(OC)cccc2s1)C1Cc2ccccc2C1 [Compound 26]
